Laboratory results from patent publication US6753296B1, “Method for improving plant growth” (priority 2002, dated 2004).

How the values were obtained:
Assay type in all cases: in vivo
[1] = tested on: Eggplant (Solanum melongena L. cv. Marfa); test: Vigor of eggplant after drench treatment
Description: (§1) Plant are grown in a commercially available pathogen-free soil mixture. 2 weeks (eggplants 3 weeks) after planting seedlings are transplanted into 600 ml pots and drench treated with 10 mg Thiamethoxam in 20 ml water per pot. They were fertilised once or twice a week. Up to 10 weeks after treatment, fresh- and dry-weight of shoots and roots and numbers of leaves are determined. Protein content is measured by the method of Bradford (1976, Anal. Biochem., 72, 248-254) with BSA (bovine serum albumin) as standard: Homogenisation of leaf material in liquid N2 in a mortar. Extraction in phosphate buffer (pH 7.5, 0.1M, 2/1 vol/weight). After centrifugation supematant is separated from pellet and stored at −20° C. until protein determination. For comparison of treated and check, mg proteing/g fresh weight is calculated.
(§2) Tables B2 and B3: Differences between treated plants and Check given as factors (e.g. fresh weight of treated/Fresh weight of check). Factors >1 indicate an enhancement of vigor of treated plants. FW: fresh weight; DW: dry weight; Protein ((mg/g treated plant)/(mg/g check))

[2] = tested on: Canola; test: Emergence of canola from treated seed; details: seed treatment 300 g per 100 kg seed; vs untreated seeds
Description: Canola seed is treated with the composition of the invention containing Thiamethoxam, at a rate of 300 g Thiamethoxam per 100 kg seed, and is seeded following procedures which correspond to conditions found in practice. Untreated seeds from the same origin are used for comparison purposes. Emergence (plants per meter) is evaluated. In the case of treated seeds, about 20% more plants per meter emerge that in the case of untreated plants.

[3] = tested on: Rice (Orvza sativa L. cv. Nihonbare); test: Vigor of rice after drench treatment
Description: as §1, §2

[4] = tested on: Potato; test: Crop yield of treated potato tubers; details: potato tubers treated at 500 g per 100 kg seed; harvested at maturity; vs untreated tubers
Description: Potato tubers are treated with the composition of the invention containing Imidacloprid, at a rate of 500 g Imidacloprid per 100 kg seed and are planted following procedures which correspond to conditions found in practice. The crop is harvested from the field at maturity. Untreated tubers from the same origin are used for comparison purposes.

For `CN1COCN(Cc2cnc(Cl)s2)/C1=N\[N+](=O)[O-]` [Thiamethoxam], the “Protein ((mg/g treated plant)/(mg/g check))” value (“Protein” below) ([1]; week 1, drench 10 mg per pot) was 1.0, the “Root DW (factor treated/check)” value ([1]; week 1, drench 10 mg per pot) was 1.0 and the “Root FW (factor treated/check)” value ([1]; week 1, drench 10 mg per pot) was 1.0. The “Shoot DW (factor treated/check)” value ([1]; week 1, drench 10 mg per pot) was 0.9, the “Shoot FW (factor treated/check)” value ([1]; week 1, drench 10 mg per pot) was 0.9 and the “Size (factor treated/check)” value ([1]; week 1, drench 10 mg per pot) was 1.0. For the same compound, the “Protein” value ([1]; week 2, drench 10 mg per pot) was 1.1, the “Root DW (factor treated/check)” value ([1]; week 2, drench 10 mg per pot) was 1.2 and the “Root FW (factor treated/check)” value ([1]; week 2, drench 10 mg per pot) was 1.2. For the same compound, the “Shoot DW (factor treated/check)” value ([1]; week 2, drench 10 mg per pot) was 1.1, the “Shoot FW (factor treated/check)” value ([1]; week 2, drench 10 mg per pot) was 0.7 and the “Size (factor treated/check)” value ([1]; week 2, drench 10 mg per pot) was 1.1. For the same compound, the “Protein” value ([1]; week 3, drench 10 mg per pot) was 1.0, the “Root DW (factor treated/check)” value ([1]; week 3, drench 10 mg per pot) was 1.1 and the “Root FW (factor treated/check)” value ([1]; week 3, drench 10 mg per pot) was 1.1. The “Shoot DW (factor treated/check)” value ([1]; week 3, drench 10 mg per pot) was 1.1, the “Shoot FW (factor treated/check)” value ([1]; week 3, drench 10 mg per pot) was 1.2 and the “Size (factor treated/check)” value ([1]; week 3, drench 10 mg per pot) was 1.1. The “Protein” value ([1]; week 4, drench 10 mg per pot) was 1.6, the “Root DW (factor treated/check)” value ([1]; week 4, drench 10 mg per pot) was 1.0 and the “Root FW (factor treated/check)” value ([1]; week 4, drench 10 mg per pot) was 1.0. The “Shoot DW (factor treated/check)” value ([1]; week 4, drench 10 mg per pot) was 1.1, the “Shoot FW (factor treated/check)” value ([1]; week 4, drench 10 mg per pot) was 1.1 and the “Size (factor treated/check)” value ([1]; week 4, drench 10 mg per pot) was 1.0. The “Leaf No (factor treated/check)” value ([1]; week 5, drench 10 mg per pot) was 1.1, the “Protein” value ([1]; week 5, drench 10 mg per pot) was 1.0 and the “Root DW (factor treated/check)” value ([1]; week 5, drench 10 mg per pot) was 1.0. The “Root FW (factor treated/check)” value ([1]; week 5, drench 10 mg per pot) was 0.9, the “Shoot DW (factor treated/check)” value ([1]; week 5, drench 10 mg per pot) was 1.1 and the “Shoot FW (factor treated/check)” value ([1]; week 5, drench 10 mg per pot) was 1.0. The “Size (factor treated/check)” value ([1]; week 5, drench 10 mg per pot) was 1.0, the “Leaf No (factor treated/check)” value ([1]; week 6, drench 10 mg per pot) was 1.3 and the “Protein” value ([1]; week 6, drench 10 mg per pot) was 1.1. For the same compound, the “Root DW (factor treated/check)” value ([1]; week 6, drench 10 mg per pot) was 0.9, the “Root FW (factor treated/check)” value ([1]; week 6, drench 10 mg per pot) was 0.9 and the “Shoot DW (factor treated/check)” value ([1]; week 6, drench 10 mg per pot) was 1.3. For the same compound, the “Shoot FW (factor treated/check)” value ([1]; week 6, drench 10 mg per pot) was 1.3, the “Size (factor treated/check)” value ([1]; week 6, drench 10 mg per pot) was 1.3 and the “Leaf No (factor treated/check)” value ([1]; week 7, drench 10 mg per pot) was 1.3. For the same compound, the “Protein” value ([1]; week 7, drench 10 mg per pot) was 1.4, the “Root DW (factor treated/check)” value ([1]; week 7, drench 10 mg per pot) was 0.7 and the “Root FW (factor treated/check)” value ([1]; week 7, drench 10 mg per pot) was 0.8. The “Shoot DW (factor treated/check)” value ([1]; week 7, drench 10 mg per pot) was 1.1, the “Shoot FW (factor treated/check)” value ([1]; week 7, drench 10 mg per pot) was 1.1 and the “Size (factor treated/check)” value ([1]; week 7, drench 10 mg per pot) was 1.2. The “Leaf No (factor treated/check)” value ([1]; week 8, drench 10 mg per pot) was 1.2, the “Protein” value ([1]; week 8, drench 10 mg per pot) was 1.4 and the “Root DW (factor treated/check)” value ([1]; week 8, drench 10 mg per pot) was 0.6. The “Root FW (factor treated/check)” value ([1]; week 8, drench 10 mg per pot) was 0.6, the “Shoot DW (factor treated/check)” value ([1]; week 8, drench 10 mg per pot) was 0.9 and the “Shoot FW (factor treated/check)” value ([1]; week 8, drench 10 mg per pot) was 0.7. The “Size (factor treated/check)” value ([1]; week 8, drench 10 mg per pot) was 1.2, the “Leaf No (factor treated/check)” value ([1]; week 9, drench 10 mg per pot) was 1.6 and the “Protein” value ([1]; week 9, drench 10 mg per pot) was 2.5. The “Root DW (factor treated/check)” value ([1]; week 9, drench 10 mg per pot) was 1.1, the “Root FW (factor treated/check)” value ([1]; week 9, drench 10 mg per pot) was 0.9 and the “Shoot DW (factor treated/check)” value ([1]; week 9, drench 10 mg per pot) was 1.1. The “Shoot FW (factor treated/check)” value ([1]; week 9, drench 10 mg per pot) was 0.7, the “Size (factor treated/check)” value ([1]; week 9, drench 10 mg per pot) was 1.4 and the “Leaf No (factor treated/check)” value ([1]; week 10, drench 10 mg per pot) was 1.4. The “Protein” value ([1]; week 10, drench 10 mg per pot) was 1.3, the “Root DW (factor treated/check)” value ([1]; week 10, drench 10 mg per pot) was 1.3 and the “Root FW (factor treated/check)” value ([1]; week 10, drench 10 mg per pot) was 1.1. The “Shoot DW (factor treated/check)” value ([1]; week 10, drench 10 mg per pot) was 1.1, the “Shoot FW (factor treated/check)” value ([1]; week 10, drench 10 mg per pot) was 1.1 and the “Size (factor treated/check)” value ([1]; week 10, drench 10 mg per pot) was 1.4. For the same compound, the “Emergence (plants per meter), more plants than untreated” value [2] was “about 20%”, the “Protein” value ([3]; week 1, drench 10 mg per pot) was 1.1 and the “Root DW (factor treated/check)” value ([3]; week 1, drench 10 mg per pot) was 0.8. The “Root FW (factor treated/check)” value ([3]; week 1, drench 10 mg per pot) was 1.0, the “Shoot DW (factor treated/check)” value ([3]; week 1, drench 10 mg per pot) was 1.0 and the “Shoot FW (factor treated/check)” value ([3]; week 1, drench 10 mg per pot) was 1.0. For the same compound, the “Size (factor treated/check)” value ([3]; week 1, drench 10 mg per pot) was 1.0, the “Protein” value ([3]; week 2, drench 10 mg per pot) was 1.0 and the “Root DW (factor treated/check)” value ([3]; week 2, drench 10 mg per pot) was 1.1. For the same compound, the “Root FW (factor treated/check)” value ([3]; week 2, drench 10 mg per pot) was 0.8, the “Shoot DW (factor treated/check)” value ([3]; week 2, drench 10 mg per pot) was 1.1 and the “Shoot FW (factor treated/check)” value ([3]; week 2, drench 10 mg per pot) was 1.0. The “Size (factor treated/check)” value ([3]; week 2, drench 10 mg per pot) was 1.0, the “Protein” value ([3]; week 3, drench 10 mg per pot) was 1.0 and the “Root DW (factor treated/check)” value ([3]; week 3, drench 10 mg per pot) was 1.3. For the same compound, the “Root FW (factor treated/check)” value ([3]; week 3, drench 10 mg per pot) was 0.6, the “Shoot DW (factor treated/check)” value ([3]; week 3, drench 10 mg per pot) was 1.3 and the “Shoot FW (factor treated/check)” value ([3]; week 3, drench 10 mg per pot) was 1.2. The “Size (factor treated/check)” value ([3]; week 3, drench 10 mg per pot) was 1.0, the “Protein” value ([3]; week 4, drench 10 mg per pot) was 1.0 and the “Root DW (factor treated/check)” value ([3]; week 4, drench 10 mg per pot) was 1.4. For the same compound, the “Root FW (factor treated/check)” value ([3]; week 4, drench 10 mg per pot) was 1.5, the “Shoot DW (factor treated/check)” value ([3]; week 4, drench 10 mg per pot) was 1.2 and the “Shoot FW (factor treated/check)” value ([3]; week 4, drench 10 mg per pot) was 1.3. For the same compound, the “Size (factor treated/check)” value ([3]; week 4, drench 10 mg per pot) was 1.1, the “Protein” value ([3]; week 5, drench 10 mg per pot) was 1.0 and the “Root DW (factor treated/check)” value ([3]; week 5, drench 10 mg per pot) was 0.9. The “Root FW (factor treated/check)” value ([3]; week 5, drench 10 mg per pot) was 1.0, the “Shoot DW (factor treated/check)” value ([3]; week 5, drench 10 mg per pot) was 1.1 and the “Shoot FW (factor treated/check)” value ([3]; week 5, drench 10 mg per pot) was 1.2. The “Size (factor treated/check)” value ([3]; week 5, drench 10 mg per pot) was 1.1, the “Protein” value ([3]; week 6, drench 10 mg per pot) was 1.0 and the “Root DW (factor treated/check)” value ([3]; week 6, drench 10 mg per pot) was 1.5. For the same compound, the “Root FW (factor treated/check)” value ([3]; week 6, drench 10 mg per pot) was 1.6, the “Shoot DW (factor treated/check)” value ([3]; week 6, drench 10 mg per pot) was 1.1 and the “Shoot FW (factor treated/check)” value ([3]; week 6, drench 10 mg per pot) was 1.3. For the same compound, the “Size (factor treated/check)” value ([3]; week 6, drench 10 mg per pot) was 1.2, the “Protein” value ([3]; week 7, drench 10 mg per pot) was 1.1 and the “Root DW (factor treated/check)” value ([3]; week 7, drench 10 mg per pot) was 1.3. The “Root FW (factor treated/check)” value ([3]; week 7, drench 10 mg per pot) was 1.3, the “Shoot DW (factor treated/check)” value ([3]; week 7, drench 10 mg per pot) was 1.2 and the “Shoot FW (factor treated/check)” value ([3]; week 7, drench 10 mg per pot) was 1.3. For the same compound, the “Size (factor treated/check)” value ([3]; week 7, drench 10 mg per pot) was 1.1, the “Protein” value ([3]; week 8, drench 10 mg per pot) was 1.0 and the “Root DW (factor treated/check)” value ([3]; week 8, drench 10 mg per pot) was 1.5. The “Root FW (factor treated/check)” value ([3]; week 8, drench 10 mg per pot) was 1.8, the “Shoot DW (factor treated/check)” value ([3]; week 8, drench 10 mg per pot) was 1.4 and the “Shoot FW (factor treated/check)” value ([3]; week 8, drench 10 mg per pot) was 1.4. For the same compound, the “Size (factor treated/check)” value ([3]; week 8, drench 10 mg per pot) was 1.1, the “Protein” value ([3]; week 9, drench 10 mg per pot) was 0.9 and the “Root DW (factor treated/check)” value ([3]; week 9, drench 10 mg per pot) was 1.0. The “Root FW (factor treated/check)” value ([3]; week 9, drench 10 mg per pot) was 1.0, the “Shoot DW (factor treated/check)” value ([3]; week 9, drench 10 mg per pot) was 1.2 and the “Shoot FW (factor treated/check)” value ([3]; week 9, drench 10 mg per pot) was 1.2. For the same compound, the “Size (factor treated/check)” value ([3]; week 9, drench 10 mg per pot) was 1.2, the “Protein” value ([3]; week 10, drench 10 mg per pot) was 0.7 and the “Root DW (factor treated/check)” value ([3]; week 10, drench 10 mg per pot) was 2.0. The “Root FW (factor treated/check)” value ([3]; week 10, drench 10 mg per pot) was 2.0, the “Shoot DW (factor treated/check)” value ([3]; week 10, drench 10 mg per pot) was 1.3 and the “Shoot FW (factor treated/check)” value ([3]; week 10, drench 10 mg per pot) was 1.3. The “Size (factor treated/check)” value ([3]; week 10, drench 10 mg per pot) was 1.3.

For `O=[N+]([O-])NC1=NCCN1Cc1ccc(Cl)nc1` [Imidacloprid], the Crop yield [4] was “significantly higher”.
